Assay results taken from PubChem BioAssay (NCI).
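In this assay, cells in 96-well plates receive the compound at five concentrations for 48 hours. Endpoints are linearly interpolated between the surrounding concentrations. GI50 marks 50% less growth. TGI: concentration producing complete growth inhibition.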

Columns and labels:
Experiment in all cases: inhibition of tumour cell growth, NCI panel, 48 h
SF-539 CNS = tested on: SF-539 CNS
COLO 205 colon = tested on: COLO 205 colon
PC-3 prostate = tested on: PC-3 prostate
NCI-H522 lung = tested on: NCI-H522 lung
OVCAR-5 ovarian = tested on: OVCAR-5 ovarian
MDA-MB-231 breast = tested on: MDA-MB-231 breast
SW-620 colon = tested on: SW-620 colon
SNB-19 CNS = tested on: SNB-19 CNS
CCRF-CEM leukemia = tested on: CCRF-CEM leukemia
OVCAR-3 ovarian = tested on: OVCAR-3 ovarian
M14 melanoma = tested on: M14 melanoma
MCF7 breast = tested on: MCF7 breast
HOP-62 NSCLC = tested on: HOP-62 NSCLC
EKVX NSCLC = tested on: EKVX NSCLC
UACC-62 melanoma = tested on: UACC-62 melanoma
SK-MEL-5 melanoma = tested on: SK-MEL-5 melanoma
K-562 leukemia = tested on: K-562 leukemia
T-47D breast = tested on: T-47D breast
LOX IMVI melanoma = tested on: LOX IMVI melanoma
A549 NSCLC = tested on: A549 NSCLC
ACHN renal = tested on: ACHN renal
MALME-3M melanoma = tested on: MALME-3M melanoma
HS 578T breast = tested on: HS 578T breast
SK-OV-3 ovarian = tested on: SK-OV-3 ovarian
BT-549 breast = tested on: BT-549 breast
SR leukemia = tested on: SR leukemia
OVCAR-4 ovarian = tested on: OVCAR-4 ovarian
A498 renal = tested on: A498 renal
SNB-75 CNS = tested on: SNB-75 CNS
HT29 colon = tested on: HT29 colon
SK-MEL-2 melanoma = tested on: SK-MEL-2 melanoma
NCI/ADR-RES ovarian = tested on: NCI/ADR-RES ovarian
HCT-116 colon = tested on: HCT-116 colon
OVCAR-8 ovarian = tested on: OVCAR-8 ovarian
TK-10 renal = tested on: TK-10 renal
IGROV1 ovarian = tested on: IGROV1 ovarian
SF-295 CNS = tested on: SF-295 CNS
SF-268 CNS = tested on: SF-268 CNS
HCT-15 colon = tested on: HCT-15 colon
HCC-2998 colon = tested on: HCC-2998 colon
RXF 393 renal = tested on: RXF 393 renal
MOLT-4 leukemia = tested on: MOLT-4 leukemia
MDA-MB-435 = tested on: MDA-MB-435
NCI-H460 lung = tested on: NCI-H460 lung
NCI-H23 lung = tested on: NCI-H23 lung
UACC-257 melanoma = tested on: UACC-257 melanoma
786-0 renal = tested on: 786-0 renal
RPMI-8226 leukemia = tested on: RPMI-8226 leukemia
U251 CNS = tested on: U251 CNS
NCI-H226 lung = tested on: NCI-H226 lung
UO-31 renal = tested on: UO-31 renal
KM12 colon = tested on: KM12 colon
SN12C renal = tested on: SN12C renal
CAKI-1 renal = tested on: CAKI-1 renal
HOP-92 NSCLC = tested on: HOP-92 NSCLC
DU-145 prostate = tested on: DU-145 prostate
SK-MEL-28 melanoma = tested on: SK-MEL-28 melanoma
HL-60(TB) leukemia = tested on: HL-60(TB) leukemia

Compound: COc1cnc2c(c1)C(=O)c1c-2n(CCCn2ccnc2)c(=O)c2cc(OC)c(OC)cc12
- GI50 (SF-539 CNS): 52.7 nM
- TGI (SF-539 CNS): 889 nM
- GI50 (COLO 205 colon): 654 nM
- TGI (COLO 205 colon): 2380 nM
- GI50 (PC-3 prostate): 631 nM
- TGI (PC-3 prostate): 8450 nM
- GI50 (NCI-H522 lung): 80.3 nM
- TGI (NCI-H522 lung): 1610 nM
- GI50 (OVCAR-5 ovarian): 1030 nM
- TGI (OVCAR-5 ovarian): 3100 nM
- GI50 (MDA-MB-231 breast): 3550 nM
- TGI (MDA-MB-231 breast): 11900 nM
- GI50 (SW-620 colon): 127 nM
- TGI (SW-620 colon): 2130 nM
- GI50 (SNB-19 CNS): 68 nM
- TGI (SNB-19 CNS): 13300 nM
- GI50 (CCRF-CEM leukemia): 35.3 nM
- TGI (CCRF-CEM leukemia): 4470 nM
- GI50 (OVCAR-3 ovarian): 594 nM
- TGI (OVCAR-3 ovarian): 2010 nM
- GI50 (M14 melanoma): 60 nM
- TGI (M14 melanoma): 1410 nM
- GI50 (MCF7 breast): 29.8 nM
- TGI (MCF7 breast): 1400 nM
- GI50 (HOP-62 NSCLC): 41.9 nM
- TGI (HOP-62 NSCLC): 1300 nM
- GI50 (EKVX NSCLC): 1680 nM
- TGI (EKVX NSCLC): 7240 nM
- GI50 (UACC-62 melanoma): 40.1 nM
- TGI (UACC-62 melanoma): 1470 nM
- GI50 (SK-MEL-5 melanoma): 258 nM
- TGI (SK-MEL-5 melanoma): 1480 nM
- GI50 (K-562 leukemia): 85.2 nM
- TGI (K-562 leukemia): 5860 nM
- GI50 (T-47D breast): 41.1 nM
- TGI (T-47D breast): 1900 nM
- GI50 (LOX IMVI melanoma): 42.2 nM
- TGI (LOX IMVI melanoma): 1120 nM
- GI50 (A549 NSCLC): 465 nM
- TGI (A549 NSCLC): 11700 nM
- GI50 (ACHN renal): 37.6 nM
- TGI (ACHN renal): 1090 nM
- GI50 (MALME-3M melanoma): 1390 nM
- TGI (MALME-3M melanoma): 3040 nM
- GI50 (HS 578T breast): 4770 nM
- TGI (HS 578T breast): 17500 nM
- GI50 (SK-OV-3 ovarian): 119 nM
- TGI (SK-OV-3 ovarian): 2270 nM
- GI50 (BT-549 breast): 416 nM
- TGI (BT-549 breast): 6620 nM
- GI50 (SR leukemia): 20.4 nM
- TGI (SR leukemia): 6640 nM
- GI50 (OVCAR-4 ovarian): 1540 nM
- TGI (OVCAR-4 ovarian): 3530 nM
- GI50 (A498 renal): 9440 nM
- TGI (A498 renal): 23300 nM
- GI50 (SNB-75 CNS): 67.3 nM
- TGI (SNB-75 CNS): 1210 nM
- GI50 (HT29 colon): 242 nM
- TGI (HT29 colon): 1750 nM
- GI50 (SK-MEL-2 melanoma): 17300 nM
- TGI (SK-MEL-2 melanoma): 31500 nM
- GI50 (NCI/ADR-RES ovarian): 361 nM
- TGI (NCI/ADR-RES ovarian): 4410 nM
- GI50 (HCT-116 colon): 113 nM
- TGI (HCT-116 colon): 1710 nM
- GI50 (OVCAR-8 ovarian): 419 nM
- TGI (OVCAR-8 ovarian): 2950 nM
- GI50 (TK-10 renal): 2940 nM
- TGI (TK-10 renal): 8090 nM
- GI50 (IGROV1 ovarian): 1240 nM
- TGI (IGROV1 ovarian): 6210 nM
- GI50 (SF-295 CNS): 38.1 nM
- TGI (SF-295 CNS): 1410 nM
- GI50 (SF-268 CNS): 72.9 nM
- TGI (SF-268 CNS): 14100 nM
- GI50 (HCT-15 colon): 1210 nM
- TGI (HCT-15 colon): 3140 nM
- GI50 (HCC-2998 colon): 899 nM
- TGI (HCC-2998 colon): 3060 nM
- GI50 (RXF 393 renal): 354 nM
- TGI (RXF 393 renal): 2190 nM
- GI50 (MOLT-4 leukemia): 36.7 nM
- TGI (MOLT-4 leukemia): 2530 nM
- GI50 (MDA-MB-435): 710 nM
- TGI (MDA-MB-435): 4790 nM
- GI50 (NCI-H460 lung): 36.5 nM
- TGI (NCI-H460 lung): 1320 nM
- GI50 (NCI-H23 lung): 72.1 nM
- TGI (NCI-H23 lung): 1620 nM
- GI50 (UACC-257 melanoma): 627 nM
- TGI (UACC-257 melanoma): 2780 nM
- GI50 (786-0 renal): 55.1 nM
- TGI (786-0 renal): 1280 nM
- GI50 (RPMI-8226 leukemia): 167 nM
- TGI (RPMI-8226 leukemia): 3580 nM
- GI50 (U251 CNS): 48.1 nM
- TGI (U251 CNS): 3280 nM
- GI50 (NCI-H226 lung): 190 nM
- TGI (NCI-H226 lung): 5000 nM
- GI50 (UO-31 renal): 65.9 nM
- TGI (UO-31 renal): 1370 nM
- GI50 (KM12 colon): 1670 nM
- TGI (KM12 colon): 7690 nM
- GI50 (SN12C renal): 56.3 nM
- TGI (SN12C renal): 4020 nM
- GI50 (CAKI-1 renal): 39.1 nM
- TGI (CAKI-1 renal): 3410 nM
- GI50 (HOP-92 NSCLC): 935 nM
- TGI (HOP-92 NSCLC): 10800 nM
- GI50 (DU-145 prostate): 60.8 nM
- TGI (DU-145 prostate): 1900 nM
- GI50 (SK-MEL-28 melanoma): 1310 nM
- TGI (SK-MEL-28 melanoma): 3610 nM
- GI50 (HL-60(TB) leukemia): 45 nM
- TGI (HL-60(TB) leukemia): 3670 nM
